From publication PMC5995255, “CD44 positive and sorafenib insensitive hepatocellular carcinomas respond to the ATP-competitive mTOR inhibitor INK128” (Oncotarget, 2018)

Columns and labels:
[1] = INK128 plasma pharmacokinetic study; type: in vivo, ICR mice
Procedure: All animal experiments were carried out under protocols approved by the Institutional Laboratory Animal Care and Use Committee at the Ohio State University. Imprinting control region (ICR) female mice (6 weeks) were obtained from Charles Rivers (Wilmington, MA, USA). Mice were acclimated in the animal housing facility for one week before the start of the study. After overnight fasting, INK128 (3 mg/kg) was administered by oral gavage (PO) in 10% DMSO. At different time points, mice were euthanized by carbon dioxide asphyxiation, and blood was immediately collected by cardiac puncture into lithium heparinized tubes (BD Microtainer, Becton, Dickson and Company, NJ, USA). Blood samples were centrifuged at 6000 × g for 5 min at 4°C. Plasma was collected and kept on dry ice before being stored at −80°C until analysis.
Plasma samples were thawed on ice. Blank mouse plasma was used for standard curves. Plasma aliquots (100 ul) were spiked with hesperetin (10 ul, 5000 ng/ml) as an internal standard and mixed by vortexing. Drugs were extracted with simple protein precipitation using cold acetonitrile, and the mixture was centrifuged at 13000 × g for 10 min. The supernatant was collected and dried under nitrogen. Dried samples were reconstituted with 200 ul 1% formic acid. Samples were analyzed using liquid chromatography–tandem mass spectrometry (LC-MS/MS) system consisting of Thermo Accela UHPLC pump, Thermo PAL autosampler, and Thermo TSQ Discovery triple quadruple mass spectrometer (Thermo, Waltham, MA, USA). Chromatographic separation was done using an Agilent Zobrax Extend C-18 column. Linear gradient elution was used at a flow rate of 400 ul/min, with a mobile phase of […] and 95% acetonitrile, modified with 0.2% formic acid. Non-compartmental analysis of the pharmacokinetic parameters as well as compartmental model fitting of the data was carried using Phoenix® 7.0 (Certara, New Jersey, USA).

[2] = system: sorafenib resistant Huh7 cells; assay: Cell proliferation, WST-1 assay, sorafenib resistant Huh7; type: cell-based, human; details: 72 h
Procedure: A sorafenib-resistant Huh7 cell line was established by long term exposure to incremental concentrations of sorafenib (LC Laboratories, USA) as reported. Following six months of culture in 10 cm cell culture dishes, resistant cells were diluted out in 96 well plates and single cell clones were selected and scaled up to be used in further experiments.

SNU423 cells = assay: Wound healing (in vitro migration) assay; type: cell-based, human; details: 500 nM; 30 h migration
Procedure: SNU423 cells were treated with either INK128 or everolimus at 500 nM or vehicle control (1% DMSO). At 24 h after treatment or transfection, 70 μl of the treated cells (3 × 10^5 cells/mL) was placed into each well of ibidi culture-insert (ibidi, LLC). After an overnight incubation, the culture insert was removed to create a cell-free gap in a monolayer of the cells. The gap closure area was photographed and analyzed by Tscratch software. Wound healing assay was further performed using Huh7 and PLC/PRF/5 cells to determine the effects of CD44 overexpression of migration. The percentage of the gap closure area based on the initial point at time zero was calculated from at least two independent experiments.

[3] = system: Huh7CD44, PLC/PRF/5CD44, Huh7EV and PLC/PRF/5EV cells; assay: Cell proliferation, WST-1 assay, CD44 overexpressing versus empty vector cells; type: cell-based, human; details: 72 h
Procedure: An optimized DNA fragment for CD44 overexpression was designed and ordered from Invitrogen using GeneArt® Gene Synthesis. The optimized DNA fragment was cloned using GeneArt® Seamless Cloning technology into a p-EGFP-C1 vector graciously obtained from Matthew Wood's Lab. Huh7 and PLC/PRF/5 cells (CD44low) were transfected with 1500 ng of either CD44 vector or empty vector using Lipofectamine 3000 (Invitrogen). Forty-eight h after transfection, cells were selected using 150 μg/ml hygromycin (Life Technologies). Western blotting was used to confirm successful transfection and expression of CD44.

phosphorylation of S6K = assay: Immunoblotting of phosphorylated S6K; type: cell-based, human; details: CD44high cells; 48 h
Procedure: (§1) Cell protein lysates (20–30 μg) were separated on NuPAGE 4–12% Bis-Tris gels (Novex) electrophoretically and transferred to polyvinylidene difluoride membranes (Roche). Membranes were blocked for 1 h with 5% Bovine Serum Albumin in Tris-buffered saline containing 0.05% Tween 20 and incubated overnight with primary antibody. The following primary antibodies were used: anti-CD44 (Cell signaling, #3578), anti-vimentin (Abcam, ab92547), anti-total S6K (Cell signaling, # 2708), anti-phosphorylated S6K (Cell signaling, #9234), anti-total 4EBP-1 (Cell signaling, #9644), anti-phosphorylated 4EBP-1(Cell signaling, #2855) and anti-PARP (Cell signaling # 9532) Anti-GAPDH (Santa Cruz Biotechnology, sc-32233) and anti-β actin (Cell Signaling, 4970S) antibodies were used as loading controls. A secondary anti-rabbit (Cell Signaling) or anti-mouse immunoglobulin G (IgG) antibody peroxidase conjugate (GE Healthcare) was detected using ECL Western Blotting Analysis System (Amersham Biosciences).

[4] = system: CD44high HCC cells (SNU423, SNU449, SK-Hep-1); assay: Cell proliferation, WST-1 assay, CD44high HCC cells; type: cell-based, human
[5] = system: CD44 and vimentin protein expression in SNU423 cells; assay: Immunoblotting of CD44 and vimentin protein; type: cell-based, human; details: 48 h; SNU423 (rapalogs also SNU449)
Procedure: as §1

phosphorylation of 4EBP1 = assay: Immunoblotting of phosphorylated 4EBP1; type: cell-based, human; details: CD44high cells; 48 h
Procedure: as §1

[6] = system: SK-Hep1 subcutaneous xenografts; assay: SK-Hep1 xenograft efficacy study; type: in vivo, athymic nude mice
Procedure: Immunodeficient athymic nude male mice (8 weeks) were obtained from Charles River laboratories and kept in the University's animal housing facility. SK-Hep1 cells were prepared from a low-passage, logarithmically growing population of cells. SK-Hep1 (3 × 10^6 cells) were suspended in 150 ul of Matrigel (Corning, NY, USA) and injected subcutaneously into the right flank of the mice. Three weeks after implantation, tumor sizes were measured using a Fisherbrand™ Traceable™ Digital Caliper (Thermo), the animals were randomized based on tumor size, and treatment was initiated. Tumor size measurements were taken twice a week throughout the treatment period.
Athymic nude mice bearing SK-Hep1 tumors were randomized into four groups (n = 10 per group); vehicle, sorafenib, INK128 and combination. Sorafenib (10 mg/kg) was prepared as a 4× stock solution in cremophor EL:ethanol (50:50), and diluted using water on the day of the treatment. Vehicle and sorafenib groups received their respective treatments every day via oral gavage. INK128 (3 mg/kg) was prepared in 10% DMSO and dosed via oral gavage every other day. The combination group received a daily dose of sorafenib (10 mg/kg) along with INK128 (3 mg/kg) every other day. Mice were monitored every day, and body weight and tumor size measurements were recorded twice a week throughout the treatment period. Tumor volume was calculated using the equation V= ½ × L × W^2. Treatment was continued for 24 days after which the animals were euthanized. Tumor growth is represented as percentage change from baseline tumor volume.

[7] = system: CD44 or vimentin mRNA in SNU423 cells; assay: qRT-PCR of CD44 and vimentin mRNA; type: cell-based, human; details: 500 nM; 48 h
Procedure: Total RNA was isolated from ATP-competitive mTOR inhibitor treated cells using miRNeasy® Mini kit (Qiagen). cDNA was synthesized according to the manufacturer's protocol (Invitrogen). Five hundred ng of total RNA was used to synthesize cDNA using random primers. cDNA was analyzed for gene expression using gene specific primers (IDT) and the Express SYBR® GreenER qPCR super mix (Invitrogen). Data were normalized to 18S rRNA and the relative expression of genes was presented using the comparative CT method. The following primers were used; CD44: 5′-TGCAGTT […]-3′ (forward) and 5′-[…]-3′ (reverse), Vimentin: 5′-CAGC […]-3′ (forward) and 5′-ATCCT […]-3′ (reverse), 18S: 5′-GT […]-3′(forward) and 5′-CCAT […]-3′(reverse)

[8] = system: HCC cell lines (SNU423, SNU449 and Huh7); assay: Cell proliferation, WST-1 assay, three HCC cell lines; type: cell-based, human; details: 48 h
[9] = 3 mg/kg oral gavage, single dose, plasma
[10] = female, ICR, mouse, plasma, po, 3 mg/kg, 3 mg/kg oral gavage, single dose
[11] = female, ICR, mouse, 3 mg/kg oral gavage, single dose, plasma

CC(C)n1nc(-c2ccc3oc(N)nc3c2)c2c(N)ncnc21 [INK128]
time with drug concentrations greater than 100 nM ([1]; 3 mg/kg oral gavage): approximately 16 h
CL [1, 9]: 0.000582 L/min
Cmax [1, 9]: 2030 nM
tolerability ([1]; 3 mg/kg oral, all animals of the pharmacokinetic study): well tolerated
Cmax [1, 10]: 2030 nM
Tmax [1, 10]: ≤ 0.25 h
concentration at 24 h ([1]; female, ICR, mouse, plasma, 3 mg/kg oral gavage, 24 h, read-out: plasma concentration 24 h post dose): 24.6 nM
AUC(0-t) [1, 11]: 7.38 µM·h
half-life [1, 11]: 1.81 h
anti-proliferative effects versus wildtype CD44low Huh7 cells [2]: greater anti-proliferative effects
decrease of cell movement compared to vehicle control (SNU423 cells): 50%
anti-proliferative response of CD44 expressing cells versus empty vector cells ([3]; 500 nM): responded better
phosphorylation of S6K (phosphorylation of S6K): inhibited
reduction of proliferation in CD44high compared to CD44low cells ([4]; 72 h, CD44low: Huh7, PLC/PRF/5, HepG2): more effective
inhibition at 0.1 µM ([4]; Homo sapiens, 100 nM, CD44high cells (Figure 1C), read-out: inhibition in cellular proliferation): 60%
anti-proliferative activity versus allosteric mTOR inhibitors ([4]; SNU423 and SNU449 cells, 48 h): better anti-proliferative activity than rapamycin and everolimus
CD44 and vimentin protein expression [5]: great reduction
phosphorylation of 4EBP1 (phosphorylation of 4EBP1): inhibited
reduction of tumor burden compared to vehicle control or sorafenib alone ([6]; 3 mg/kg every other day oral): up to 30%
reduction in tumor volume (from baseline) ([6]; INK128 3 mg/kg every other day oral, alone or with sorafenib 10 mg/kg daily, 24 days): 24%
CD44 or vimentin mRNA [7]: no change

CO[C@H]1C[C@@H]2CC[C@@H](C)[C@@](O)(O2)C(=O)C(=O)N2CCCC[C@H]2C(=O)O[C@H]([C@H](C)C[C@@H]2CC[C@@H](OCCO)[C@H](OC)C2)CC(=O)[C@H](C)/C=C(\C)[C@@H](O)[C@@H](OC)C(=O)[C@H](C)C[C@H](C)/C=C/C=C/C=C/1C [everolimus]
decrease of cell movement compared to vehicle control (SNU423 cells): 20%
phosphorylation of S6K (phosphorylation of S6K): blocked
CD44 and vimentin protein expression [5]: did not alter
phosphorylation of 4EBP1 (phosphorylation of 4EBP1): did not inhibit
proliferation (lowest level reached) ([8]; even at 5000 nM): ≥ 40%

CO[C@H]1C[C@@H]2CC[C@@H](C)[C@@](O)(O2)C(=O)C(=O)N2CCCC[C@H]2C(=O)O[C@H]([C@H](C)C[C@@H]2CC[C@@H](O)[C@H](OC)C2)CC(=O)[C@H](C)/C=C(\C)[C@@H](O)[C@@H](OC)C(=O)[C@H](C)C[C@H](C)/C=C/C=C/C=C/1C [rapamycin]
phosphorylation of S6K (phosphorylation of S6K): blocked
CD44 and vimentin protein expression [5]: did not alter
phosphorylation of 4EBP1 (phosphorylation of 4EBP1): did not inhibit
proliferation (lowest level reached) [8]: ≥ 40%

CNC(=O)c1cc(Oc2ccc(NC(=O)Nc3ccc(Cl)c(C(F)(F)F)c3)cc2)ccn1 [sorafenib]
ability to reduce proliferation as a function of CD44 protein [3]: no difference
tumor size increase compared to baseline ([6]; 10 mg/kg daily oral gavage, 24 days): 46%
inhibition in tumor growth compared to vehicle control ([6]; 10 mg/kg daily oral, not significant): approximately 15%
